These results are taken from patent EP1655289A1, “Quinazoline derivatives, process for their preparation, their use as antimitotics and pharmaceutical compositions comprising said derivatives” (EMBL, priority 2004, dated 2006).

One series deals with T1, Eg5 (Xenopus laevis, UniProt P28025).
T1 construct: Xenopus laevis Eg5 corresponding to amino acids 1 to 487; made in house; host or cells: E. coli M15(pREP4)
T1 sequence (P28025 1-487): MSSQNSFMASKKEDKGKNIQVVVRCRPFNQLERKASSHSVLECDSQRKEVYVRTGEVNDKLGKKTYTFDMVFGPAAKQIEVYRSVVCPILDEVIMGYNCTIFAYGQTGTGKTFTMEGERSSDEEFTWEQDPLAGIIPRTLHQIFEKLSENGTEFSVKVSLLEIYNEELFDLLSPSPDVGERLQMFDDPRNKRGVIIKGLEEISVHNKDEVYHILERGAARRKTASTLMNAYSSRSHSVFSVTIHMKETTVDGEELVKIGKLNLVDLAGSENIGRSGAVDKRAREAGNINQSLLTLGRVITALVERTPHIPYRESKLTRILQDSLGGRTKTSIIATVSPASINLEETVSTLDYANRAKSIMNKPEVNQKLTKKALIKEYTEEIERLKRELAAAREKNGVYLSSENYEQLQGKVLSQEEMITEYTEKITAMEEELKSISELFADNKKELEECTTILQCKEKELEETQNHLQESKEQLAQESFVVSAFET
Kind of series: Microtubule-stimulated ATPase activity of Eg5 (EnzChek Phosphate Assay), IC50 determination. The class given is biochemical. Conditions: for potency as inhibitor of Eg5 compared to monastrol: ratio of IC50 values versus monastrol. On the procedure:
The protein was expressed in E. coli M15(pREP4) for 5 h at 18 °C in LB containing 1 mM isopropylthio-β-D-galactopyranoside (IPTG), 100 µg/ml ampicillin, 25 µg/ml kanamycin, and 2% (v/v) ethanol. The harvested cells were lysed in buffer A (50 mM KPi, 100 mM NaCl, 0.1 mM MgATP protease inhibitors (Roche), pH 7.0) with 5 mM mercaptoethanol (ME). The clarified lysate was loaded onto a HIS-Select Cobalt Affi Gel column (Sigma), washed with buffer A supplemented with 10 mM imidazole, 2 mM ME, 10 % (w/v) glycerol, and eluted with 150 mM imidazole, 50 mM KCI, 10 % (w/v) glycerol, 10 mM ME, pH 7.3. The buffer was exchanged to 50 mM 3-(N-morpholino)propanesulfonic acid/KOH, 50 mM KCI, 1 mM MgCl2, 1 mM EGTA, 10 mM ME, 20 % (w/v) glycerol, pH 7.0 by dialysis. The protein concentration was adjusted to 2 mg/ml (measured by a Bradford assay using bovine serum albumin (BSA) as standard). Eg5487H was frozen in liquid ethane and stored in liquid nitrogen.
Polymerized microtubules were then stabilized by addition of 1 µl 10 mM paclitaxel (Sigma) in DMSO and incubated at 37 °C for another 20 minutes. The suspension was centrifuged at 70000 rpm at 30 °C for 30 minutes in a TLA100 rotor (Beckman). The resulting microtubule pellet was resuspended in 60 µl assay buffer (10 mM imidazole/acetate, 5 mM K-acetate, 2 mM EGTA and 4 mM Mg-acetate, pH 6.8.) supplemented with 20 µM paclitaxel at 37 °C. This microtubule suspension was stored at room temperature. The final concentration was 80 µM polymerized tubulin as determined by Bradford using BSA as a standard.
Final concentrations were 40 nM Eg5487H, 4 µM microtubules (tubulin dimer concentration as determined by Bradford using BSA as standard), and 1 mM MgATP. The ATPase activity was measured as an increase of absorbance at 365 nm within 2 h at room temperature. 1 % (v/v) inhibitor in DMSO at different concentrations (or 1 % (v/v) DMSO as a control) was added at the start of the experiment. At least 4 measurements were performed per condition and the results were then averaged. The microtubule-stimulated activity of Eg5487H was obtained by subtracting background activity (measured with microtubules only in the absence of Eg5487H) from measurements containing Eg5487H and microtubules. The IC50 was determined by assuming non-competitive enzyme inhibition and fitting the theoretically expected dependence of the enzym activity on the inhibitor concentration to the experimental microtubule-stimulated ATPase activities. The equation used for the fit was v = vmax * IC50 / ([inhibitor] + IC50) + vres with v being the measured relative ATPase rate, vmax being the maximum ATPase rate and vres being a residual activity at high inhibitor concentration.

The next series relates to Xenopus egg extract. The series is described as follows: Spindle assembly in Xenopus egg extracts. Also noted: species or system Xenopus laevis. The procedure: Cytostatic factor (CSF)-arrested Xenopus laevis egg extracts were prepared as described previously. Spindle assembly experiments were performed in cycled extracts with sperm nuclei and tetramethylrhodamine labelled tubulin as described. 1 % (v/v) (or less) inhibitor dissolved in DMSO was added to the extract prior to spindle assembly. As control 1% DMSO was added to the extract. Spindles were fixed and centrifuged onto coverslips. The DNA was stained with DAPI. Structures were then visualized by epi-fluorescence microscopy (Zeiss Axiovert 135 equipped with a Roper CoolSnap HQ camera). Spindles and aberrant microtubule structures were then counted.

Series [1] deals with HeLa cells. The series is described as follows: FACS cell cycle analysis of HeLa cells after 18 h inhibitor treatment. Conditions: for cells in G2/M: FACS (control 23%). In kind it is cell-based, human. The procedure: (§1) Hela cells were cultured in DMEM medium supplemented with 10 % (v/v) FCS to 60 % confluency. The culture medium was then exchanged by fresh medium containing different inhibitor or DMSO and the cells placed at 37 °C in 5 % CO2 for 18 h. The final volume of inhibitor dissolved in DMSO in the medium was always equal to or less than 0.1 % (v/v)For wash out experiments, cells were treated as described above. After 18 h cells were washed with phosphate buffered saline (PBS), covered with fresh medium and cultured for another 24 h at 37 °C in 5 % CO2.
HeLa cells were incubated for 18 hours in medium supplemented with various concentrations of either of the three compounds, monastrol or DMSO. Cells were then fixed and analyzed by FACS and immunofluorescence.
(§2) For FACS analysis, cells were scraped off the culture plate after inhibitor treatment or after wash-out and collected by centrifugation in a Heraeus Megafuge 1.0R at 1200 rpm for 5 min. The cell pellet was washed once with 5 ml PBS and then resuspended in 0.5 ml PBS. The cells were fixed by addition of 4 ml 70 % (v/v) ethanol and incubation overnight at -20 °C. Fixed cells were centrifuges at 1200 rpm for 5 min, washed with 5 ml PBS, and resuspended in 1ml PI solution (10 µg/ml propidium iodide, 100 µg/ml RNAse A, 0.05 % Triton X100 in PBS). After 30 min at 37 °C in the dark, cells were analyzed by fluorescence-activated cell sorting (FACS).

For series [2], the system named is HeLa cells. Kind of series: Wash-out experiment in HeLa cells (18 h treatment, 24 h fresh medium). The class given is cell-based, human. Conditions: 24 h in fresh medium. On the procedure: as §1, §2
One useful characteristic of monastrol is that is non-toxic for the cells when applied transiently; once washed out cells resume mitosis. […]

The mark [3] stands for this setting: microtubule-stimulated ATPase activity, 40 nM Eg5487H, 4 µM microtubules, 1 mM MgATP, read-out: IC50.
[4] abbreviates: 10 µM added to Xenopus egg extract.

SMILES strings stand for the structures. Where two headings read alike, the source gives them in different places.

`O=C1CCCC2=C1C(c1cccc(O)c1)NC(=S)N2` (stereo not drawn) [Example 1, 4-(3-Hydroxyphenyl)-5-oxo-3,4,5,6,7,8-hexahydroquinazoline-2(1H)-thione]: the IC50 – broadly, the concentration needed to halve the response being measured – at Eg5 (setting [3]) was found to be 2000 nM. Also, the “potency as inhibitor of Eg5 compared to monastrol” value at Eg5 is reported as “more than ten times more potent”. In addition, the bipolar spindle formation result with Xenopus egg extract (setting [4]) is recorded as “inhibited bipolar spindle formation”. Further, the “cells in G2/M” value in the series with HeLa cells [1] (10 µM) is 77%.

Regarding `CC1(C)CC(=O)C2=C(C1)NC(=S)NC2c1cccc(O)c1` (stereo not drawn) [Example 2, 7,7-Dimethyl-4-(3-hydroxyphenyl)-5-oxo-3,4,5,6,7,8-hexahydroquinazoline-2(1H)-thione], at Eg5, half-maximal inhibition (IC50) was put at 200 nM and the “potency as inhibitor of Eg5 compared to monastrol” value is on record as “more than 100 times”. Also, the bipolar spindle formation result in the series on Xenopus egg extract (1 µM added to Xenopus egg extract) is “inhibited bipolar spindle formation”. For the same compound, in the series with HeLa cells [1] (0.1 µM, FACS), the cell cycle distribution result is listed as “No cell cycle distribution abnormalities”. For the same compound, the “cells in G2/M” value in the series on HeLa cells [1] (0.5 µM) turned out to be 47%. Besides, in the series on HeLa cells [1] (1 µM), the “cells in G2/M” value came to 75%.

In the case of `Oc1cccc(C2NC(=S)NC3=C2C(O)CCC3)c1` (stereo not drawn) [Example 3, 4-(3-Hydroxyphenyl)-5-hydroxy-3,4,5,6,7,8-hexahydroquinazoline-2(1H)-thione], the IC50 at Eg5 (setting [3]) was determined as 2000 nM. Moreover, the “potency as inhibitor of Eg5 compared to monastrol” value on Eg5 was “more than ten times more potent”. Besides, the bipolar spindle formation entry with Xenopus egg extract (setting [4]) was “inhibited bipolar spindle formation”. In addition, the “cells in G2/M” value in the series with HeLa cells [1] (10 µM) was found to be 77%.

In the case of `CCOC(=O)C1=C(C)NC(=S)NC1c1cccc(O)c1` (stereo not drawn) [monastrol, 4-(3-hydroxyphenyl)-5-ethoxycarbonyl-6-methyl-3,4-dihydropyrimidin-2(1H), reference compound], the “toxicity for the cells when applied transiently” value in the series with HeLa cells [2] is given as “non-toxic”. The compound further registered an IC50 against Eg5 of 30000 nM. In addition, the “cells in G2/M” value with HeLa cells [1] (10 µM) came to 31%; in the series with HeLa cells [1] (100 µM), 74%.
